Entries after “also recorded” stand apart in the source; their conditions may differ.
What was measured:
[1] = tested on: endothelial cells (HUVEC); experiment: Proliferation of endothelial cells under hypoxia ([H3]Thymidine incorporation); format: cell-based, human; details: 24 hours starvation, 10 ng/ml
Experimental: FIG. 5 is a graph depicting cell proliferation as a function of ADOPeps' concentration. Proliferation of endothelial cells (EC) under hypoxia conditions was measured by [H^3]Thymidine incorporation. Endothelial cells (12,000/well) in minimal growth medium were incubated for 24 hours in the presence of 1, 10 and 100 ng/ml of ADOPep1 (SEQ ID NO:2; red diamonds), 2 (SEQ ID NO:3; blue squares) and 3 (SEQ ID NO:4; green triangles) peptides.
HUVEC from passage 3 were used for proliferation experiments. Endothelial cells (15,000 cells/well) were seeded on 24-wells in the presence of endothelial cell growth medium (Promocell, Heidelberg, Germany) with supplements and incubated for 24 hours. After then, cells were exposed to 24 hours starvation in a medium free of supplements. ADOPeps were added at concentrations of 1, 10 and 100 ng/ml for 24 hours under hypoxic conditions. 2 μCi/well of Thymidine (SIGMA, Rehovot Israel) were added or over night incubation followed by 3 washes with PBS before harvesting at 37° C. with 300 μl/well of 0.5 M NaOH. Cell lysates were transferred to scintillation vials with 2 ml scintillation liquid Ultima Gold (Packard Bioscience, Meriden, USA) and counted in a β counter. Results were obtained as counts per minute (cpm).

mouse ischemic hind limb [2] = experiment: Mouse hind-limb ischemia model, laser Doppler blood perfusion; format: in vivo; details: 0.1 microgram/mouse i.m., day 21 after surgery, vs PBS
Experimental: A mouse hind limb model was created by excision of femoral artery of C57B1 mouse hind limb, the non-operated limb served as a control. ADOPep1 (SEQ ID NO:2; red symbols) and 3 (SEQ ID NO:4; green symbols) were injected intra-muscularly one day after surgery at 0.1 (squares) and 1 (circles) micrograms/mouse. Injection of PBS (black diamond) was used as a control. Blood flow was measured using a laser Doppler immediately (T0) or at 7 (T7), 14 (T14) and 21 (T21) days after surgery. The average perfusion of each limb was determined and the perfusion ratio [expressed as Relative Perfusion (ischemic left/control right leg)] was plotted against time.
A mouse hind limb ischemia model was used. Ischemia was created in the C57B1 strain mouse by ligation and excision of the femoral artery on the left hind limb. The right hind limb served as a control. A day after the operation ADOPep1 and 3 were injected intramuscular at a site close to the operation. […] The blood perfusion was measured using a Laser Doppler Blood perfusion analyzer (Perimed, Sweden) one day post operation and 7, 14, 21 days post operation. The average perfusion of each limb was computed and percent perfusion ratio was expressed as the ischemic (left)/control (right) percent perfusion ratio.

mouse ischemic hind limb [3] = experiment: Histological assessment of angiogenesis in ischemic hind limb (von Willebrand Factor VIII staining); format: in vivo
Experimental: FIG. 8 is a graph depicting histological assessment of angiogenesis in the ischemic hind limb treated with ADOPep1. Mice were subjected to hind limb ligation and ADOPep administration as described in FIG. 7 and at the noted days (0, 7, 14 and 21 days) post hind limb ligation the mice were sacrificed and legs were embedded in paraffin. Sections were stained with anti von Willebrand factor and the number of Factor VIII positive vessels was determined using the Image Pro Plus software. Shown are the average blood vessel densities (of 10 individual microscopical fields per sample) expressed as number of capillaries per millimeter squared in histological sections of mouse hind limb ischemia treated with ADOPep1.
FIGS. 9a-b are microscopical images of histological sections subjected to von Willebrand Factor immuno-staining of mouse hind limb ischemia 21 days following injection of ADOPep1 (FIG. 9a) or PBS (FIG. 9b). […]
Limbs from mice treated with ADOPep 1, 3 or control mice injected with PBS were sacrificed at 7, 14 and 21 days post operation. […] Vessel densities were expressed as capillaries per millimeter squared. To obtain the average vessel number per cross-section area, a minimum of ten individual fields were sampled, and Image Pro-Plus (MediaCybernetics, Silver spring, MD, USA) was used to measure the counted area. The number of Factor VIII positive vessels was counted.

endothelial cells = experiment: CoCl2-induced apoptosis of endothelial cells (Annexin-FITC/PI FACS); format: cell-based, human; details: normoxia, 100 micromolar per 100,000 cells CoCl2, 10 ng/ml peptide 24 hours
Experimental: FIGS. 33a-f are representative FACS analyses depicting a specific inhibition of hypoxia-induced apoptosis of endothelial cells by ADOPep1. Endothelial cells in Petri dishes were incubated for 24 hours with 5% FCS in supplement-free endothelial cell growth medium under normoxia (FIGS. 33a and d), exposed to 24 hours hypoxia (Figures c and f) or incubated under normoxia with 100 micromolar per 100,000 cells CoCl2 (FIGS. 33b and e), in the absence (FIGS. 33a-c) or presence (FIGS. 33d-f) of 10 ng/ml Adopep1 peptide (for 24 hours). Cells were trypsinized and immediately re-suspended in PBS with 5% FCS and 0.1% Na-azide. Samples containing 100,000 cells were tested for apoptosis using the Annexin-FITC (X axis) and propidium iodide (Y axis) kit (Bender Medsystems, Vienna, Austria), according to manufacturer's instructions. Results were analyzed by FACScan (Beckton Dickinson).
FIG. 34 is a histogram depicting the FACS results of the experiments described in FIGS. 33a-f. Data represents average±SD of 2 experiments.

[4] = tested on: GRP78 in mouse ischemic hind limb; experiment: GRP78-positive cells in ischemic hind limb sections; format: in vivo; details: 1 μg/mice, 7 to 14 days post ligation, vs PBS
Experimental: FIG. 21 is a bar graph depicting the mean number of GRP78-positive (GRP78+) cells per area in hind limb ischemia treated with ADOPep1 as a function of the days post induction of ischemia. Mice were subjected to hind limb ligation (the ischemic model) and after one day the mice were injected with either 1 μg/mice of ADOPep1, or 50 μl of PBS as control. The number of GRP78 positive cells was determined in histological sections prepared from ligated hind limbs (injected with ADOPep1 or PBS) of mice sacrificed at 7, 14 or 21 days post ischemia induction or normal untreated (non-ischemic) hind limbs.

Sequence: HWRRAHLLPRLP [ADOPep1, ADAM15 derived peptide, amino acids 286-297 of the metalloprotease domain]
- proliferation of endothelial cells [1]: capable of inducing proliferation of EC
- proliferation of endothelial cells ([1]; listed as ADOpep1): induced proliferation of endothelial cells
- blood perfusion ratio (ischemic left/control right) (mouse ischemic hind limb [2]): significant increase in the blood perfusion ratio; also recorded: significant increase in blood perfusion (p<0.05)
- blood vessel density (number of blood vessels per area) (mouse ischemic hind limb [3]; 0.1 μg per mouse, days 7, 14, 21, vs PBS): significant increase (p<0.05) in the number of blood vessels; also recorded: significant increase in the blood vessel density
- von Willebrand Factor staining of small vessels (mouse ischemic hind limb [3]; 21 days following injection, vs PBS): higher von Willebrand Factor Positive stained small vessels; also recorded: significantly higher von Willebrand Factor staining of small vessels
- effect on CoCl2 induced apoptosis (endothelial cells): no effect on apoptosis induced by CoCl2; also recorded: not the CoCl2 induced apoptosis
- effect on CoCl2 induced apoptosis (endothelial cells; listed as AdoPep1): did not inhibit apoptosis of endothelial cells exposed to the apoptotic inducer Cobalt-Chloride
- mean number of GRP78 positive cells [4]: significantly increased
- mean number of GRP78 positive cells ([4]; listed as Adopep1): more significant increase in mean number of GRP78 positive cells

From patent US8741843B2, “Compositions and methods for inducing angiogenesis” (priority 2006, dated 2014)
